Where two headings read alike, the source gives them in different places.
Assays:
[1] = target: T1, USP2^CD (purified catalytic domain of USP2) (Homo sapiens, UniProt O75604); test: Inhibition of purified USP2^CD enzymatic activity (Ub-AMC or Ub-Rho substrate); assay type: biochemical; conditions: for inhibition at 0.01 µM: 0.01 μM compound; for inhibition at 0.05 µM: 0.05 μM compound; for inhibition at 0.1 µM: 0.1 μM compound; for inhibition at 0.5 µM: 0.5 μM compound; for inhibition at 1 µM: 1 μM compound; for inhibition at 5 µM: 5 μM compound; for inhibition at 10 µM: 10 μM compound; for inhibition at 25 µM: 25 μM compound; for inhibition at 50 µM: 50 μM compound; for IC50: read-out: IC50 USP2 CD
T1 construct: The purified catalytic domain of USP2 (USP2^CD, in-house purified); His; made in house; host or cells: E. coli BL21 Gold
T1 sequence (O75604 267-599 limits assumed): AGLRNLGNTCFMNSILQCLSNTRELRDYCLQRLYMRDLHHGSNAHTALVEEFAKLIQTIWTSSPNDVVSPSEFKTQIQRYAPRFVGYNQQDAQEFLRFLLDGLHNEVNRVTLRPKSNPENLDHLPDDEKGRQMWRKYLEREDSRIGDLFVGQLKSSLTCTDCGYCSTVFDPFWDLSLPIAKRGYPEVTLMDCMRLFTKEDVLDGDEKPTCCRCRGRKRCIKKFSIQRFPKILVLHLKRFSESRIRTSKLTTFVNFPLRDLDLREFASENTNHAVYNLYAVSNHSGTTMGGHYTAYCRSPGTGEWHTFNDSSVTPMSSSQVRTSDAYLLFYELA
Protocol: (§1) USP2CD or USP8CD were expressed in E. coli BL21 Gold. Cells were grown in LB Miller to mid-log phase and induced by addition of 0.5 mM IPTG for USP2CD for 5 h at 20° C., while 1 mM IPTG was added for USP8CD for 3 h at 37° C. Then, cells were harvested and frozen at −80° C.
For His-tagged USP2CD, cells were resuspended in buffer C (10 mM TRIS pH 8.0, 100 mM NaCl, 10 mM Imidazole) and lysed using a sonicator. The lysate was clarified by centrifugation and applied to Ni Sepharose6 Fast Flow resin (GE Healthcare). The resin was sequentially washed with buffer C, then with buffer C containing 50 mM Imidazole. Protein sample was eluted from the resin using buffer C containing 250 mM Imidazole. The eluted protein was buffer exchanged by gel-filtration on a Superdex 200 10/300 GL column (GE Healthcare) equilibrated in Buffer D (15 mM Bis-TRIS pH 6.0, 100 mM NaCl, 1 mM dithiothreitol (DTT)).
(§2) Enzymatic assay was performed in a HEPES buffer (50 mM pH7.6 1 mM DTT, 2% glycerol, 0.5 mM EDTA) or in a Tris buffer (40 mM pH7.4 1 mM DTT, 5% glycerol, 0.05 mg/ml BSA) respectively, following manufacturer's instructions. Compounds were added to the reaction mixture just prior to the substrate. The enzymatic reaction kinetics was monitored through the apparition of fluorescence due to the hydrolysis of the peptidyl Ub-AMC or Ub-Rho bound over 20 or 30 minutes.
(§3) Medium value out of duplicates is reported.

[2] = target: T2, USP8^CD (purified catalytic domain of USP8) (Homo sapiens, UniProt P40818); test: Inhibition of purified USP8^CD enzymatic activity (Ub-AMC or Ub-Rho substrate); assay type: biochemical; conditions: for inhibition at 0.01 µM: 0.01 μM compound; for inhibition at 0.05 µM: 0.05 μM compound; for inhibition at 0.1 µM: 0.1 μM compound; for inhibition at 0.5 µM: 0.5 μM compound; for inhibition at 1 µM: 1 μM compound; for inhibition at 5 µM: 5 μM compound; for inhibition at 10 µM: 10 μM compound; for inhibition at 25 µM: 25 μM compound; for inhibition at 50 µM: 50 μM compound; for IC50: read-out: IC50 USP8 CD
T2 construct: the purified catalytic domain of USP8 (USP8^CD, in-house purified); made in house; host or cells: E. coli BL21 Gold
T2 sequence (P40818 777-1109 limits assumed): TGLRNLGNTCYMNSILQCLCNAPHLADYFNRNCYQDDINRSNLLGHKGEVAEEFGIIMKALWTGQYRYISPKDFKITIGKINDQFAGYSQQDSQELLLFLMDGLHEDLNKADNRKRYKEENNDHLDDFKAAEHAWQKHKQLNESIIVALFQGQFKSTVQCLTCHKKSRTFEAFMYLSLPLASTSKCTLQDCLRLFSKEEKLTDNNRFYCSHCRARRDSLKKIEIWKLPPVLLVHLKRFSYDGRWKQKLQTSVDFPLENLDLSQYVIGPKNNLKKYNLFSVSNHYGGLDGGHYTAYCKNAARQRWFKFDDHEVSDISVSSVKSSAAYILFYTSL
Protocol: as §1
For His-tagged USP8CD, cells were resuspended in buffer A (50 mM TRIS pH 8.0, 500 mM NaCl, 2 mM Imidazole) and lysed using a sonicator. The lysate was clarified by centrifugation and applied to Ni Sepharose6 Fast Flow resin (GE Healthcare). The resin was sequentially washed first with buffer A containing 10 mM Imidazole then with buffer A containing 20 mM Imidazole, and finally with buffer A containing 50 mM Imidazole. Protein sample was eluted from the resin using buffer A containing 300 mM Imidazole. The eluted protein was buffer exchanged by gel-filtration on a Superdex 200 10/300 GL column (GE Healthcare) equilibrated in Buffer B (20 mM HEPES pH 7.5, 300 mM NaCl, 2 mM dithiothreitol (DTT)).
as §2, §3

[3] = tested on: MESSA cells; test: Cytotoxicity assay (PrestoBlue cell viability), MESSA; assay type: cell-based; conditions: Homo sapiens, MES-SA; 48 hours treatment; concentration inducing 50% cell mortality
Protocol: (§4) Messa, Messa DX5, HCT116, HEK-293, PC-3, LNCaP, HCC827 and H1975 cell lines are issued from the American Type Culture Collection (ATCC).
(§5) Messa, Messa DX5 and HCT116 were maintained in McCoy's supplemented with 10% fetal bovine serum, and 1% penicillin/streptomycin. PC-3, LNCaP cells were maintained in RPMI medium supplemented with 10% fetal bovine serum, and 1% penicilin/streptomycin and in the case of Messa DX5: 500 nM Doxorubicin was added to maintain selection pressure. HEK293 were maintained in DMEM medium supplemented with 10% fetal bovine serum, and 1% penicillin/streptomycin. Cells were maintained at 37° C. with 5% CO2, 95% air, and humid atmosphere. In the case of hormonal dependent LNCaP cells, 2 μM DiHydroTestosterone (DHT) was added or not—depending on the type of biological assay—for the same incubation period as compounds.
(§6) For cytotoxicity assays, cells were seeded in 96-well microplates 24 hours before the addition of increasing concentrations of each compound in the culture medium. Cell viability was analyzed 48 hours following addition of each compound through the monitoring of mitochondrial […] activity using PrestoBlue® Cell Viability Reagent (Invitrogen; #A-13261). Paclitaxel was used as a control which is cytotoxic on various cancerous cells although not on chemoresistant MESSA DX5 lineage.

[4] = tested on: MESSA DX5 cells; test: Cytotoxicity assay (PrestoBlue cell viability), MESSA DX5; assay type: cell-based, human; conditions: for EC50: Homo sapiens, MES-SA/Dx5, 48 hours treatment, chemoresistant line
Protocol: as §4, §5, §6

[5] = tested on: HEK293 cells; test: Cytotoxicity assay (PrestoBlue cell viability), HEK293; assay type: cell-based; conditions: Homo sapiens, 48 hours treatment
Protocol: as §4, §5, §6

[6] = tested on: PC-3 cells; test: Cytotoxicity assay (PrestoBlue cell viability), PC-3; assay type: cell-based; conditions: Homo sapiens, 48 hours treatment
Protocol: as §4, §5, §6

[7] = tested on: LNCaP cells; test: Cytotoxicity assay (PrestoBlue cell viability), LNCaP; assay type: cell-based; conditions: Homo sapiens, 48 hours treatment
Protocol: as §4, §5, §6

[8] = tested on: H1975 cells; test: Cytotoxicity assay (PrestoBlue cell viability), H1975; assay type: cell-based, human; conditions: Homo sapiens, NCI-H1975, 48 h
Protocol: as §4, §6

[9] = Ub-AMC substrate at 1 μM, Table 2b
[10] = Ub-Rhodamine substrate at 0.1 μM, Table 2c

inhibition at 0.01 µM ([1]; Table 1c)	inhibition at 0.05 µM ([1]; Table 1c)	inhibition at 0.1 µM ([1]; Table 1c)	inhibition at 0.5 µM ([1]; Table 1c)	inhibition at 1 µM ([1]; Table 1b)	inhibition at 1 µM ([1]; Table 1c)	inhibition at 5 µM ([1]; Table 1c)	inhibition at 10 µM ([1]; Table 1c)	inhibition at 25 µM ([1]; Table 1b)	inhibition at 50 µM ([1]; Table 1b)	IC50 [1, 9]	inhibition at 0.01 µM ([2]; Table 1d)	inhibition at 0.05 µM ([2]; Table 1d)	inhibition at 0.1 µM ([2]; Table 1d)	inhibition at 0.5 µM ([2]; Table 1d)	inhibition at 1 µM ([2]; Table 1b)	inhibition at 1 µM ([2]; Table 1d)	inhibition at 5 µM ([2]; Table 1b)	Structure (SMILES)	EC50 [3]	EC50 [4]	further results
-19%	-3%	19%	-20%	53%	44%	17%	9%	53%	63%	> 10 µM	2%	21%	-8%	63%	100%	83%	103%	COc1ccc(S(=O)(=O)Cc2nc3c(nc2CS(=O)(=O)c2ccc(OC)c(OC)c2)C(=O)c2ccccc2C3=O)cc1OC [OVM18]	1300 nM	2500 nM	inhibition at 5 µM ([2]; Table 1d): 77%; inhibition at 10 µM ([2]; Table 1d): 71%; inhibition at 25 µM ([2]; Table 1b): 96%; inhibition at 50 µM ([2]; Table 1b): 101%; IC50 [2, 9]: 500 nM; EC50 [5]: 2500 nM; EC50 [6]: 3000 nM; EC50 [7]: 2100 nM; EC50 [8]: > 3000 nM
																		CC(=O)O[C@H]1C(=O)[C@@]2(C)[C@H]([C@H](OC(=O)c3ccccc3)[C@]3(O)C[C@H](OC(=O)[C@H](O)[C@@H](NC(=O)c4ccccc4)c4ccccc4)C(C)=C1C3(C)C)[C@]1(OC(C)=O)CO[C@@H]1C[C@@H]2O [Paclitaxel, reference compound]	1500 nM	> 100000 nM	MESSA-DX5 cells death ([4]; high concentration (100 μM)): did not induce MESSA-DX5 cells death
11%	6%	-26%	2%	51%	31%	51%	57%	99%	100%	5 µM	-15%	24%	12%	51%	85%	86%	102%	CCS(=O)(=O)Cc1nc2c(nc1CS(=O)(=O)CC)C(=O)c1ccccc1C2=O [VIN6075]	3000 nM	> 3000 nM	inhibition at 5 µM ([1]; Table 1b): 75%; IC50 [1, 10]: 0.6 µM; inhibition at 5 µM ([2]; Table 1d): 104%; inhibition at 10 µM ([2]; Table 1d): 110%; inhibition at 25 µM ([2]; Table 1b): 104%; inhibition at 50 µM ([2]; Table 1b): 106%; IC50 [2, 9]: 500 nM; IC50 [2, 10]: 80 nM; EC50 [5]: > 3000 nM; EC50 [6]: 3000 nM; EC50 [7]: 2800 nM; EC50 [8]: > 3000 nM

From patent US11306063B2, “Heterocyclic naphthoquinones derivatives for use in the treatment of cancers including Cushing disease” (Commissariat a l'Energie Atomique et aux Energies …, priority 2016, dated 2022)
